Results as given in patent publication US20230390274A1 (EPIRIUM BIO INC., priority 2020, published 2023).
Like-named read-outs stand apart in the source and are kept apart here.

Biological target: 15-PGDH/HPGD (Homo sapiens (Human), UniProt P15428)
Assay: hPGDH inhibitor screening biochemical assay
Experimental: A hydroxyprostaglandin dehydrogenase inhibition screening biochemical assay can be performed to assess the synthesized inhibitors provided herein. Provided herein is an exemplary biochemical assay for hPGDH inhibitor screening.
The in vitro biochemical assay can be performed in white, 384 plates in total 20 μl reaction volume consisting of 10 nM of 15-PGDH/HPGD (R&D System #5660-DH), 15 μM Prostaglandin E2 (Sigma, Cat #P5640-10MG) and 0.25 mM β-Nicotinamide adenine dinucleotide sodium salt (Sigma, Cat #N0632-5G) made in reaction buffer (50 mM Tris-HCl, pH 7.5, 0.01% Tween 20) at 10-point dose response curve for test/tool compounds. Briefly, 5 μl (4×) of compounds solution and 5 μl (final concentration, 10 nM) of enzyme solution is added to white 384 well plates and incubated for 10 mins at 37° C. 5 μl (4×) of Prostaglandin E2 and 5 μl (4×) of β-Nicotinamide adenine dinucleotide sodium salt is added to the wells and incubated for 10 mins at rt. Fluorescence is recorded at ex/em=340 nm/485 nm. The percentage (%) inhibition of enzyme activity was determined relative to […] (1% DMSO) and IC50 was calculated using GraphPad prism software (four parameter-variable slope equation).

[1] = 10 nM 15-PGDH/HPGD, 15 μM PGE2, 0.25 mM NAD, read-out: hPGDH: Average IC50
[2] = Table 1, PGDH inhibitors with a 6-5 ring core, read-out: hPGDH: IC50

Sequence of 15-PGDH/HPGD (P15428 whole entry): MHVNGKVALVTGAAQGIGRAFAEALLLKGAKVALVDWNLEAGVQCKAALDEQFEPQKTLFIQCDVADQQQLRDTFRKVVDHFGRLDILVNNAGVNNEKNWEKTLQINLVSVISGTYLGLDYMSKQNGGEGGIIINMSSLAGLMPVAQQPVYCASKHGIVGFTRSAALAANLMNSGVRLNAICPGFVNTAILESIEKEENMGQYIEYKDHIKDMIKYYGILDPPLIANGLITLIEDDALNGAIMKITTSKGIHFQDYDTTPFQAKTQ

IC50 [1] | IC50 [2] | SMILES
< 0.1 µM |  | CS(=O)(=O)NCCNC(=O)c1ccc(-n2ccc3cc(C(=O)N4CCC(F)(F)CC4)cnc32)cc1 [A-220, 4-(5-(4,4-difluoropiperidine-1-carbonyl)-1H-pyrrolo[2,3-b]pyridin-1-yl)-N-(2-(methylsulfonamido)ethyl)benzamide]
< 0.1 µM |  | O=C(Nc1ccno1)c1cncc(-n2ccc3cc(C(=O)N4CCC(F)(F)CC4)cnc32)c1 [A-257, 5-(5-(4,4-difluoropiperidine-1-carbonyl)-1H-pyrrolo[2,3-b]pyridin-1-yl)-N-(isoxazol-5-yl)nicotinamide]
< 0.1 µM |  | O=C(c1ccc2c(-c3cccc(Cl)c3)c[nH]c2c1)N1CCCCC1 [A-89, (3-(3-chlorophenyl)-1H-indol-6-yl)(piperidin-1-yl)methanone]
< 0.1 µM |  | NC(=O)CCc1nc2cc(C(=O)N3CCCCC3)ccc2n1-c1cccc(Cl)c1 [A-31]
< 0.1 µM |  | O=C(c1cnc2c(ccn2-c2cnccn2)c1)N1CCC(F)CC1 [A-50]
< 0.1 µM |  | O=C(c1cnc2c(ccn2-c2cncc(NS(=O)(=O)C3CC3)c2)c1)N1CCC(F)(F)CC1 [A-274, N-(5-(5-(4,4-difluoropiperidine-1-carbonyl)-1H-pyrrolo[2,3-b]pyridin-1-yl)pyridin-3-yl)cyclopropanesulfonamide]
< 0.1 µM |  | O=C(NC1CNC1)c1ccc(-n2ccc3cc(C(=O)N4CCC(F)(F)CC4)cnc32)cc1 [A-227]
< 0.1 µM |  | NC(=O)c1ccc(-n2ccc3cc(C(=O)N4CCC(F)(F)CC4)cnc32)cc1 [A-126]
< 0.1 µM |  | O=C(c1cnc2c(ccn2-c2ccc3[nH]ncc3c2)c1)N1CCC(F)(F)CC1 [A-211]
< 0.1 µM |  | COc1ccc(-n2c(C)nc3cc(C(=O)N4CCCCC4)ccc32)cc1 [A-310]
< 0.1 µM |  | COc1cncc(-n2ccc3cc(C(=O)N4CCCCC4)cnc32)c1 [A-145]
< 0.1 µM |  | O=C(c1ccc(COc2ccccc2-c2ccccn2)cc1)N1CCCCC1 [A-77]
< 0.1 µM |  | Cc1cncc(-n2ccc3cc(C(=O)N4CCCCC4)cnc32)c1 [A-113]
< 0.1 µM |  | O=C(Nc1cc(C2CC2)[nH]n1)c1cccc(-n2ccc3cc(C(=O)N4CCC(F)(F)CC4)cnc32)c1 [A-282, N-(5-cyclopropyl-1H-pyrazol-3-yl)-3-(5-(4,4-difluoropiperidine-1-carbonyl)-1H-pyrrolo[2,3-b]pyridin-1-yl)benzamide]
< 0.1 µM |  | NC(=O)c1ccc(-n2ccc3cc(C(=O)N4CCC(F)CC4)cnc32)cc1 [A-122]
< 0.1 µM |  | O=C(c1cnc2c(ccn2-c2cccc(CO)c2)c1)N1CCC(F)CC1 [A-128]
< 0.1 µM |  | COc1cncc(-n2cc(Cl)c3cc(C(=O)N4CCCCC4)cnc32)c1 [A-171]
< 0.1 µM |  | O=C(c1ccc2c(c1)ncn2-c1cccc(Cl)c1)N1CC(F)C1 [A-20]
< 0.1 µM |  | CC(C)(O)CCc1cc2cc(C(=O)N3CCC(F)(F)CC3)cnc2n1-c1ccc(C(=O)O)cc1 [A-336, 4-(5-(4,4-difluoropiperidine-1-carbonyl)-2-(3-hydroxy-3-methylbutyl)-1H-pyrrolo[2,3-b]pyridin-1-yl)benzoic acid]
< 0.1 µM |  | NC(=O)c1ccc(-n2ccc3cc(C(=O)N4CCCCC4)cnc32)cn1 [A-124]
< 0.1 µM |  | NCc1ccc(-n2ccc3cc(C(=O)N4CCCCC4)cnc32)cc1 [A-162]

IC50 [1] | IC50 [2] | SMILES
 | 0.197 µM | COc1ccc(-n2c(C3CC3)nc3cc(C(=O)N4CCCCC4)ccc32)cc1
< 0.1 µM |  | COc1ccc(-n2cnc3cc(C(=O)N4CCC(F)CC4)ccc32)cc1 [A-33]
< 0.1 µM |  | O=C(c1ccc(COc2ccccc2Cl)cc1)N1CCCCC1 [A-70]
< 0.1 µM |  | O=C(c1ccc2c(c1)ncn2-c1ccc(O)c(Cl)c1)N1CCCCC1 [A-39, (1-(3-chloro-4-hydroxyphenyl)-1H-benzo[d]imidazol-5-yl)(piperidin-1-yl)methanone]
< 0.1 µM |  | Nc1ncc(-n2ccc3cc(C(=O)N4CCCCC4)cnc32)cc1Cl [A-209]
< 0.1 µM |  | O=C(c1cnc2c(ccn2-c2ccc(-c3ncn[nH]3)nc2)c1)N1CCC(F)(F)CC1 [A-253]
< 0.1 µM |  | N#Cc1ccc(-n2ccc3cc(C(=O)N4C[C@H](F)C[C@H](F)C4)cnc32)cc1 [A-224, 4-(5-((3R,5S)-3,5-difluoropiperidine-1-carbonyl)-1H-pyrrolo[2,3-b]pyridin-1-yl)benzonitrile]
< 0.1 µM |  | O=C(c1ccc2c(c1)ncn2-c1cccc(Cl)c1)N1CCC(Cl)C1 (stereo not shown) [A-12]
< 0.1 µM |  | COc1ccc(-n2c(C)nc3cc(C(=O)N4CCCCC4)cnc32)cc1 [A-197]
< 0.1 µM |  | O=C(O)[C@@H]1CCCN1C(=O)c1ccc(-n2ccc3cc(C(=O)N4CCC(F)(F)CC4)cnc32)cc1 [A-236]
≥ 1 µM |  | Cc1nc2c(cc1C(=O)N1CCC(F)CC1)c(Cl)cn2-c1cnccn1 [A-175]
< 0.1 µM |  | O=C(c1cnc2c(c1)c(Cl)cn2-c1ccc2c(c1)OC(F)(F)O2)N1CCC(F)CC1 [A-167]
< 0.1 µM |  | O=C(c1cnc2c(ccn2-c2ccc3[nH]ncc3c2)c1)N1CCCCC1 [A-119, (1-(1H-indazol-5-yl)-1H-pyrrolo[2,3-b]pyridin-5-yl)(piperidin-1-yl)methanone]
< 0.1 µM |  | O=C(c1ccc2c(c1)ncn2-c1cccc(Cl)c1)N1CC(Cl)C1 [A-21]
< 0.1 µM |  | N#Cc1ccc(-n2ccc3cc(C(=O)N4CC[C@@H](F)C4)cnc32)cc1 (single isomer, unassigned) [A-341]
 | 0.0025 µM | O=C(c1ccc2c(c1)ncn2-c1ccc(O)c(Cl)c1)N1CCCCC1 [drawing 82]
< 0.1 µM |  | N#Cc1ccc(-n2ccc3cc(C(=O)N4CCC(F)(F)CC4)cnc32)cc1 [A-241, 4-(5-(4,4-difluoropiperidine-1-carbonyl)-1H-pyrrolo[2,3-b]pyridin-1-yl)benzonitrile]
< 0.1 µM |  | Cn1cc(-n2cc(Cl)c3cc(C(=O)N4CCC(F)CC4)cnc32)cn1 [A-59]
< 0.1 µM |  | O=C(NC1CCNCC1)c1ccc(-n2ccc3cc(C(=O)N4CCC(F)(F)CC4)cnc32)cc1 [A-226]
< 0.1 µM |  | O=C(c1cnc2c(c1)ncn2-c1ccc(F)c(F)c1)N1CCCCC1 [A-180]
< 0.1 µM |  | O=C(c1cnc2c(c1)ncn2-c1ccc(OC(F)(F)F)cc1)N1CCCCC1 [A-182]

IC50 [1] | IC50 [2] | SMILES
< 0.1 µM |  | Nc1ccc(-n2ccc3cc(C(=O)N4CCCCC4)cnc32)cn1 [A-158]
< 0.1 µM |  | Cc1nc2cc(C(=O)N3CCCCC3)ccc2n1-c1cccc(Cl)c1 [A-28]
< 0.1 µM |  | O=C(c1cnc2c(c1)c(Cl)cn2-c1cnccn1)N1CCC(F)CC1 [A-295]
< 0.1 µM |  | O=C(c1cnc2c(ccn2-c2cncc(-c3nc[nH]n3)c2)c1)N1CCC(F)(F)CC1 [A-292, (1-(5-(1H-1,2,4-triazol-3-yl)pyridin-3-yl)-1H-pyrrolo[2,3-b]pyridin-5-yl)(4,4-difluoropiperidin-1-yl)methanone]
< 0.1 µM |  | COc1ccc(-n2nnc3cc(C(=O)N4CCC(F)CC4)ccc32)cc1 [A-312, (4-fluoropiperidin-1-yl)(1-(4-methoxyphenyl)-1H-benzo[d][1,2,3]triazol-5-yl)methanone]
< 0.1 µM |  | COc1ccc(-n2cnc3cc(C(=O)N4CCC(F)CC4)cnc32)cc1 [A-64]
< 0.1 µM |  | COc1cccc(-n2ccc3cc(C(=O)N4CCCCC4)cnc32)c1 [A-143]
< 0.1 µM |  | O=C(O)Cc1ccc(-n2ccc3cc(C(=O)N4CCC(F)(F)CC4)cnc32)cc1 [A-230, 2-(4-(5-(4,4-difluoropiperidine-1-carbonyl)-1H-pyrrolo[2,3-b]pyridin-1-yl)phenyl)acetic acid]
< 0.1 µM |  | CN(C)c1cccc(-n2ccc3cc(C(=O)N4CCCCC4)cnc32)c1 [A-149]
< 0.1 µM |  | C[C@@H]1C[C@H](C)CN(C(=O)c2cnc3c(ccn3-c3ccc(C(N)=O)cc3)c2)C1 [A-210, 4-(5-((3R,5S)-3,5-dimethylpiperidine-1-carbonyl)-1H-pyrrolo[2,3-b]pyridin-1-yl)benzamide]
< 0.1 µM |  | O=C(c1ccc2c(c1)CCCN2c1cccc(Cl)c1)N1CCCCC1 [A-91, (1-(3-chlorophenyl)-1,2,3,4-tetrahydroquinolin-6-yl)(piperidin-1-yl)methanone]
 | 0.0005 µM | O=C(c1ccc2c(ccn2-c2cccc(Cl)c2)c1)N1CCCCC1 [drawing 112]
< 0.1 µM |  | O=C(Nc1ccn(C2CC2)n1)c1cncc(-n2ccc3cc(C(=O)N4CCC(F)(F)CC4)cnc32)c1 [A-284, N-(1-cyclopropyl-1H-pyrazol-3-yl)-5-(5-(4,4-difluoropiperidine-1-carbonyl)-1H-pyrrolo[2,3-b]pyridin-1-yl)nicotinamide]
≥ 1 µM |  | COc1ccccc1-c1cn(C)c2cc(C(=O)N3CCC(F)CC3)cnc12 [A-308, (4-fluoropiperidin-1-yl)(3-(2-methoxyphenyl)-1-methyl-1H-pyrrolo[3,2-b]pyridin-6-yl)methanone]
≥ 1 µM |  | O=C(c1ccc2c(c1)ncn2-c1cccc(Cl)c1)N1CCC(O)C1 (stereo not shown) [A-13]
< 0.1 µM |  | O=C(c1cnc2c(c1)c(Cl)cn2-c1cccnc1)N1CCC(F)CC1 [A-57]
< 0.1 µM |  | O=C(c1ccc2c(c1)ncn2-c1cccc(Cl)c1)N1CCC(F)(F)CC1 [A-8]
< 0.1 µM |  | COc1ccc(-n2cnc3cc(C(=O)N4CCCCC4)cnc32)cc1 [A-63]
< 0.1 µM |  | O=C(c1ccn2c(-c3cccc(Cl)c3)cnc2c1)N1CCCCC1 [A-94, (3-(3-chlorophenyl)imidazo[1,2-a]pyridin-7-yl)(piperidin-1-yl)methanone]
